From the Kinase Knowledgebase extract (Sharma et al. 2016) come the findings set out here.

Some results are limits rather than exact numbers.

For assay [1], the target named is CDK2 (UniProt P24941). As to the kind of experiment: Enzyme Assay.
For assay [2], the target named is CDK2 (UniProt P24941). As to the kind of experiment: Enzyme Assay. The source holds these as a separate data set.

By IC50 is commonly meant the concentration at which inhibition is half-maximal. A lower IC50 goes with inhibition by little substance. On to `CC(C)c1nn(-c2c(Cl)cc(Cl)cc2Cl)c2nc(Cc3ccc(NS(=O)(=O)CCCN4CCOCC4)cc3)[nH]c(=O)c12`, for which the IC50 on CDK2 [1] and on CDK2 [2] was less than 100 nM throughout.
`CN1CCN(NC(=O)Nc2cccc3c2C(=O)c2c-3n[nH]c2-c2ccc(OCCN3CCOCC3)cc2)CC1`: the IC50 on CDK2 [1] was less than 100 nM; at CDK2 [2], less than 10 nM.
The corresponding values for `CC(C)N1CCN(CCOc2ccc(-c3[nH]nc4c3C(=O)c3c(NC(=O)NN5CCOCC5)cccc3-4)cc2)CC1` are less than 10 nM and less than 10 nM.
In the case of `CCCN(CCOc1ccc(-c2[nH]nc3c2C(=O)c2c(NC(=O)NN4CCOCC4)cccc2-3)cc1)CC1CC1`, the 50% inhibitory concentration (IC50) on CDK2 [1] and against CDK2 [2] was less than 100 nM in each case.
Consider `CN1CCN(NC(=O)Nc2cccc3c2C(=O)c2c-3n[nH]c2-c2ccc(OCCN3CCCC3)cc2)CC1`, for which the IC50 on CDK2 [1] and on CDK2 [2] was less than 100 nM throughout.
On to `CC(C)c1nn(-c2c(Cl)cc(Cl)cc2Cl)c2nc(Cc3ccc(OCCN4CCOCC4)cc3)[nH]c(=O)c12`, for which the half-inhibitory concentration (IC50) against CDK2 [1] and against CDK2 [2] was less than 100 nM each time.
On to `CC(C)c1nn(-c2c(Cl)cccc2Cl)c2nc(Cc3ccc(O)c(CN4CCN(C(C)C)CC4)c3)[nH]c(=O)c12`, for which the IC50 at CDK2 [1] and on CDK2 [2] was less than 100 nM throughout.
With `O=C(Nc1cccc2c1C(=O)c1c-2n[nH]c1-c1ccc(OCCN(CCO)CCO)cc1)NN1CCOCC1`, the IC50 at CDK2 [1] and on CDK2 [2] was less than 100 nM each time.
For the molecule `O=C(Nc1cccc2c1C(=O)c1c-2n[nH]c1-c1ccc(OCCN2CCCC2)cc1)NN1CCOCC1`, the IC50 against CDK2 [1] and at CDK2 [2] was less than 100 nM each time.
Turning to `CC(C)c1nn(-c2c(Cl)cccc2Cl)c2nc(Cc3ccc(OP(=O)(O)O)cc3)[nH]c(=O)c12`, the IC50 on CDK2 [1] was less than 100 nM; against CDK2 [2] it was less than 10 nM.
The molecule `CN1CCN(Cc2ccc(-c3n[nH]c4c3C(=O)c3c(NC(=O)NN5CCOCC5)cccc3-4)cc2)CC1` had an IC50 against CDK2 [2] of less than 100 nM.
On the same count and under the same terms, in the case of `CC(C)c1nn(-c2c(Cl)cc(Cl)cc2Cl)c2nc(Cc3ccc(OCCN4CCN(C(C)C)CC4)cc3)[nH]c(=O)c12` it was less than 10 nM.
On the same count and under the same terms, in the case of `O=C(Nc1cccc2c1C(=O)c1c-2n[nH]c1-c1ccc(OCCN2CCOCC2)cc1)NN1CCOCC1` it was less than 100 nM; in that of `O=C(Nc1cccc2c1C(=O)c1c-2n[nH]c1-c1ccc(O)c(CN2CCOCC2)c1)NN1CCOCC1`, less than 100 nM; in that of `CC(C)c1nn(-c2c(Cl)cccc2Cl)c2nc(Cc3ccc(O)cc3)[nH]c(=O)c12`, less than 10 nM.
Same read-out and setting: in the case of `CN(C)C(=O)CN1CCN(NC(=O)Nc2cccc3c2C(=O)c2c-3n[nH]c2-c2ccc(OCCN3CCCC3)cc2)CC1` it was less than 100 nM.
The molecule `CC(C)N1CCN(C(=O)COc2ccc(-c3n[nH]c4c3C(=O)c3c(NC(=O)NN5CCOCC5)cccc3-4)cc2)CC1` showed an IC50 on CDK2 [2] of less than 100 nM.
The same measure, in the same setting: the value for `CC(C)c1nn(-c2c(Cl)cccc2Cl)c2nc(Cc3ccc(CN4CCCC4)c(O)c3)[nH]c(=O)c12` was less than 100 nM.
The same measure, in the same setting: in the case of `O=C(Nc1cccc2c1C(=O)c1c(-c3ccc(CN4CCC[C@H]4CO)cc3)n[nH]c1-2)NN1CCOCC1` it was less than 100 nM.
Still for that read-out and setting: the value for `CC(C)N1CCN(CCOc2ccc(-c3n[nH]c4c3C(=O)c3c(NC(=O)NN5CCOCC5)cccc3-4)c(F)c2)CC1` was less than 100 nM; that for `O=C(Nc1cccc2c1C(=O)c1c-2n[nH]c1-c1ccc(OCC(=O)N2CCOCC2)cc1)NN1CCOCC1` was less than 100 nM; that for `CC(C)N1CCN(C(=O)COc2ccc(-c3[nH]nc4c3C(=O)c3c(NC(=O)NN5CCOCC5)cccc3-4)cc2)CC1` was less than 100 nM.
Consider `CCOC(=O)CN1CCN(NC(=O)Nc2cccc3c2C(=O)c2c-3n[nH]c2-c2ccc(OCCN3CCCC3)cc2)CC1`, for which, on CDK2 [2], the IC50 was less than 100 nM.
Molecule `CC(C)c1nn(-c2c(Cl)cccc2Cl)c2nc(Cc3ccc(OCCO)cc3)[nH]c(=O)c12` registered an IC50 at CDK2 [2] of less than 100 nM.
The same measure, in the same setting: in the case of `CCOC(=O)COc1ccc(-c2[nH]nc3c2C(=O)c2c(NC(=O)NN4CCOCC4)cccc2-3)cc1` it was less than 100 nM.
